pIC50, pKi: −log10 of the molar value. Activity calls are given as the source filed them. No cut-off for these calls is given here.
How the values were obtained:
in vitro [1] = conditions: human, HepG2 cells
Description: Cytotoxicity against human HepG2 cells assessed as cell viability at 10 uM after 24 hrs by CellTiter-Glo luminescence assay relative to control

Acetylcholinesterase [2] = target: T1, Acetylcholinesterase (Homo sapiens, UniProt P22303); test: Inhibition of recombinant human AChE expressed in HEK293 cells using acetylthiocholine as substrate pretreated for 20 mins followed by substrate addition by Ellman's method; format: cell-based
in vitro [3] = conditions: human, HepG2 cells; remark: listed apart in the source
Description: Cytotoxicity against human HepG2 cells assessed as cell viability at 100 uM after 24 hrs by CellTiter-Glo luminescence assay relative to control

Cholinesterase = Cholinesterase (Homo sapiens, UniProt P06276); test: Inhibition of recombinant human serum BChE using butyrylthiocholine as substrate pretreated for 20 mins followed by substrate addition by Ellman's method
in vitro [4] = conditions: human, HepG2 cells; remark: listed apart in the source
Description: Cytotoxicity against human HepG2 cells assessed as cell viability at 300 uM after 24 hrs by CellTiter-Glo luminescence assay relative to control

[5] = target: Amyloid-beta precursor protein (Homo sapiens) (UniProt P05067); test: Inhibition of HFIP-pretreated amyloid beta (1 to 42 residues) (unknown origin) self aggregation at 50 uM after 24 hrs by ThT-based fluorometric method relative to control
Acetylcholinesterase [6] = target: T1, Acetylcholinesterase; test: Non-competitive inhibition of recombinant human AChE expressed in HEK293 cells assessed as enzyme-substrate-inhibitor complex using varying levels of acetylthiocholine as substrate by Dixon plot analysis
Acetylcholinesterase [7] = target: T1, Acetylcholinesterase; test: Non-competitive inhibition of recombinant human AChE expressed in HEK293 cells using varying levels of acetylthiocholine as substrate by Lineweaver-burk double reciprocal plot analysis; format: cell-based
Acetylcholinesterase [8] = target: T1, Acetylcholinesterase; test: Potency index, ratio of tacrine IC50 to test compound IC50 for recombinant human AChE expressed in HEK293 cells; format: cell-based

Sequence of Cholinesterase (P06276 whole entry): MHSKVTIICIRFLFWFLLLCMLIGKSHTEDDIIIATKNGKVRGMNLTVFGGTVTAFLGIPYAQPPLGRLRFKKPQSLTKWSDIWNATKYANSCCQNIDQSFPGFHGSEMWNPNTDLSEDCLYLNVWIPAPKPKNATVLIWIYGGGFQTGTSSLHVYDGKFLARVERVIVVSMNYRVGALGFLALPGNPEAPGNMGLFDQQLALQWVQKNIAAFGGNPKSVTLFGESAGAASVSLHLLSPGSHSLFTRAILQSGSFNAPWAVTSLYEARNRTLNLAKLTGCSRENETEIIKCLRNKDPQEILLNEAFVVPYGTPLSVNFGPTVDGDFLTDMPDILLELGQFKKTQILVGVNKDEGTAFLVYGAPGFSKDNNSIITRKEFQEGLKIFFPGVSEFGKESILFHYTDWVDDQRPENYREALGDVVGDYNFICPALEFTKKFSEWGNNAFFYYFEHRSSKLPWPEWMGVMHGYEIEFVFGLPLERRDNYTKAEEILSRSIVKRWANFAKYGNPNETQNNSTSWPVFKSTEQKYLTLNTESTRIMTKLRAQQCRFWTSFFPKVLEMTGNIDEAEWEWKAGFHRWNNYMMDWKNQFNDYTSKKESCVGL
Sequence of Amyloid-beta precursor protein (Homo sapiens) (P05067 whole entry, the tested form may be a part): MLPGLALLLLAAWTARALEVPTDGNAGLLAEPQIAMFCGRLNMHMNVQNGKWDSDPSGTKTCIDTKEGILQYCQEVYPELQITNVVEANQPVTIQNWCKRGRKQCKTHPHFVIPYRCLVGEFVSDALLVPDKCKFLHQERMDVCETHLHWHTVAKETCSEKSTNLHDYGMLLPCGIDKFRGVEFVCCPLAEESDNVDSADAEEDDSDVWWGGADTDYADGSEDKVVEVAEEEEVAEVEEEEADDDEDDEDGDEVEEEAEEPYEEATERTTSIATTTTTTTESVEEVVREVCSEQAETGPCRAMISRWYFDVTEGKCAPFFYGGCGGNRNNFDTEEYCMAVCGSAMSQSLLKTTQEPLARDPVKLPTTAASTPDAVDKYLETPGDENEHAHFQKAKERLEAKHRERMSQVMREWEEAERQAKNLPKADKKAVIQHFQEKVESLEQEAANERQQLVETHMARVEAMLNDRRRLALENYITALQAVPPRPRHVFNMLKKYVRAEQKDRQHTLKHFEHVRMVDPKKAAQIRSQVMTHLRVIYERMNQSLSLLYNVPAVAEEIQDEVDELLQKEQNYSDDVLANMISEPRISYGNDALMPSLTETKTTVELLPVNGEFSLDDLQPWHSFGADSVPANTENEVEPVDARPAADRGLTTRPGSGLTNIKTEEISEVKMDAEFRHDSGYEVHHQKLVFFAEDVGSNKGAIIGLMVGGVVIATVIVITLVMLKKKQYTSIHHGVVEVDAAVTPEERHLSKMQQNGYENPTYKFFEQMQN
T1 sequence (P22303 whole entry): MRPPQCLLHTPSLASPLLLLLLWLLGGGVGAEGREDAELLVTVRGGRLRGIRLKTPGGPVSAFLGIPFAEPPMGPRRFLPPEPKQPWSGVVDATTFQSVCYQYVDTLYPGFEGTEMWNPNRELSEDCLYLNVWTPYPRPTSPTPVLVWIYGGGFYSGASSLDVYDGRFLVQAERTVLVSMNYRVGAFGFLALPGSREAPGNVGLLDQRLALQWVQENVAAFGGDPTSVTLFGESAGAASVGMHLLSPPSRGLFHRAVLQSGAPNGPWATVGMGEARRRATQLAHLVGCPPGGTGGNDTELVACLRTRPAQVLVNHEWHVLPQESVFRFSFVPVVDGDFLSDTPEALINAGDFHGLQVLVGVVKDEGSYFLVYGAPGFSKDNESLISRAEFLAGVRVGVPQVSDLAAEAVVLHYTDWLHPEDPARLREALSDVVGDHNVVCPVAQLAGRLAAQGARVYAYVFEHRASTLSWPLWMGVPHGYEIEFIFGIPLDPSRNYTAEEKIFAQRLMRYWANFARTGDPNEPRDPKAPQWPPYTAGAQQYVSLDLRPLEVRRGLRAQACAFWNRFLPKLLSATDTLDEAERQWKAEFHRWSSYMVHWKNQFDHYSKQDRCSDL

Structure (SMILES) | viability at 24 h, 10 µM (in vitro [1]) | pIC50 (Acetylcholinesterase [2]) | viability at 24 h, 100 µM (in vitro [3]) | pIC50 (Cholinesterase) | viability at 24 h, 300 µM (in vitro [4]) | inhibition [5] | pKi (Acetylcholinesterase [6]) | inhibition (Acetylcholinesterase [7]) | Ratio IC50 (Acetylcholinesterase [8])
COc1ccc(C2NC(=S)Nc3nc4c(c(N)c32)CCCC4)cc1 (stereo not drawn) | 97.9% | 5.12 | 100% | 5.76 | 77.6% |  |  |  | 
Nc1c2c(nc3c1C(c1ccc(F)cc1)NC(=S)N3)CCCC2 (stereo not drawn) | 104% | 4.51 | 79.1% | 5.00 | 72.5% |  |  |  | 
Nc1c2c(nc3c1C(c1ccccc1)NC(=S)N3)CCCC2 (stereo not drawn) | 105% | 4.97 | 97.2% | 5.25 | 68.2% |  |  |  | 
Nc1c2c(nc3c1C(c1ccc(Cl)cc1)NC(=S)N3)CCCC2 (stereo not drawn) | 80% | 5.28 | 27.9% | 6.43 | 9% | 10% |  |  | 
COc1cccc(C2NC(=S)Nc3nc4c(c(N)c32)CCCC4)c1 (stereo not drawn) | 100% | 5.52 | 102% | 5.50 | 97.5% | 10% | 5.41 | Active | 
CN(C)c1ccc(C2NC(=S)Nc3nc4c(c(N)c32)CCCC4)cc1 (stereo not drawn) | 87.3% | 4.62 | 82.5% | 3.81 | 78.9% |  |  |  | 
Cc1cccc(C2NC(=S)Nc3nc4c(c(N)c32)CCCC4)c1 (stereo not drawn) | 97.6% | 5.00 | 82.5% | 5.58 | 68.1% |  |  |  | 
COc1ccccc1C1NC(=S)Nc2nc3c(c(N)c21)CCCC3 (stereo not drawn) | 98.1% | 4.51 | 81.1% | 4.93 | 68.1% |  |  |  | 
Nc1c2c(nc3c1C(c1cccc(Br)c1)NC(=S)N3)CCCC2 (stereo not drawn) | 103% | 7.43 | 76.8% | 5.90 | 62.3% | 10% | 6.83 | Active | 9.4 to 10
Nc1c2c(nc3c1C(c1cccc([N+](=O)[O-])c1)NC(=S)N3)CCCC2 (stereo not drawn) | 102% | 4.53 | 96.5% | 5.57 | 82.7% |  |  |  | 
Cc1ccc(C2NC(=S)Nc3nc4c(c(N)c32)CCCC4)cc1 (stereo not drawn) | 90.6% | 4.62 | 62% | 5.46 | 45.2% |  |  |  | 
Nc1c2c(nc3c1C(c1ccc4c(c1)OCO4)NC(=S)N3)CCCC2 (stereo not drawn) | 103% | 5.09 | 91.2% | 4.43 | 64.1% |  |  |  | 
